# Key:
# Assay type in all cases: cell-based
# [1] = system: STAPHYLOCOCCUS AUREUS 1775; experiment: In vitro antibacterial activity, MIC, BHI agar dilution; conditions: S. aureus 1775, unit assumed
# ESCHERICHIA COLI KNK 437 = conditions: E. coli KNK 437; BHI agar; unit assumed
# [2] = system: PROVIDENCIA STUARTII CMX 640; conditions: P. stuartii CMX 640; BHI agar; unit assumed
# [3] = system: KLEBSIELLA PNEUMONIAE ATCC 8045; experiment: In vitro antibacterial activity, MIC, BHI agar dilution; conditions: K. pneumoniae ATCC 8045, unit assumed
# ESCHERICHIA COLI DC-2 = experiment: as above; conditions: E. coli DC-2, unit assumed
# [4] = system: PSEUDOMONAS AERUGINOSA BMH10; experiment: as above; conditions: P. aeruginosa BMH10, unit assumed
# [5] = system: STAPHYLOCOCCUS AUREUS CMX 553; experiment: as above; conditions: S. aureus CMX 553, unit assumed
# [6] = system: STREPTOCOCCUS BOVIS A-5169; experiment: as above; conditions: S. bovis A-5169, unit assumed
# [7] = system: PSEUDOMONAS AERUGINOSA 5007; experiment: as above; conditions: P. aeruginosa 5007, unit assumed
# CANDIDA ALBICANS CCH 442 = experiment: as above; conditions: C. albicans CCH 442, unit assumed
# [8] = system: PSEUDOMONAS AERUGINOSA K799/61; experiment: as above; conditions: P. aeruginosa K799/61, unit assumed
# ESCHERICHIA COLI JUHL = conditions: E. coli JUHL; BHI agar; unit assumed
# [9] = system: PSEUDOMONAS AERUGINOSA DPHD-5263; experiment: In vitro antibacterial activity, MIC, BHI agar dilution; conditions: P. aeruginosa DPHD-5263, unit assumed
# [10] = system: STREPTOCOCCUS PYOGENES EES61; experiment: as above; conditions: S. pyogenes EES61, unit assumed
# [11] = system: STREPTOCOCCUS PYOGENES PIU 2548; experiment: as above; conditions: S. pyogenes PIU 2548, unit assumed
# [12] = system: PSEUDOMONAS AERUGINOSA K799/WT; experiment: as above; conditions: P. aeruginosa K799/WT, unit assumed
# ESCHERICHIA COLI SS = experiment: as above; conditions: E. coli SS, unit assumed
# [13] = system: STAPHYLOCOCCUS AUREUS A-5278; experiment: as above; conditions: S. aureus A-5278, unit assumed
# [14] = system: STREPTOCOCCUS PYOGENES 930; experiment: as above; conditions: S. pyogenes 930, unit assumed
# [15] = system: STAPHYLOCOCCUS AUREUS NCTC10649M; experiment: as above; conditions: S. aureus NCTC10649M, unit assumed
# ESCHERICHIA COLI H560 = experiment: as above; conditions: E. coli H560, unit assumed
# [16] = system: STAPHYLOCOCCUS AUREUS CMX 642A; experiment: as above; conditions: S. aureus CMX 642A, unit assumed
# PSEUDOMONAS CEPACIA 296I = experiment: as above; conditions: P. cepacia 296I, unit assumed
# [17] = system: STAPHYLOCOCCUS AUREUS ATCC 6538P; experiment: as above; conditions: S. aureus ATCC 6538P, 35-37° C., 20 to 24 hours, unit assumed
# EN[…] ATCC 8043 = experiment: as above; conditions: E. faecium ATCC 8043, unit assumed
# Outline: (§1)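 Agar dilution in BHI: plates inoculated with 1:100 dilutions of organisms (1:10 for Micrococcus and Streptococcus), incubated 20-24 h at 35-37° C, then inspected for the lowest inhibitory concentration against a drug-free growth control.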
# STR[…] 508 = experiment: as above; conditions: S. agalactiae CMX 508, unit assumed
# Outline: as §1
# M[…] ATCC 4698 = experiment: as above; conditions: M. luteus ATCC 4698, unit assumed
# Outline: as §1
# M[…] ATCC 9341 = experiment: as above; conditions: M. luteus ATCC 9341, unit assumed
# Outline: as §1
# [18] = system: STAPHYLOCOCCUS EPIDERMIDIS 3519; conditions: S. epidermidis 3519; BHI agar; unit assumed
# [19] = system: ENTEROBACTER AEROGENES ATCC 13048; experiment: In vitro antibacterial activity, MIC, BHI agar dilution; conditions: E. aerogenes ATCC 13048, unit assumed
# [20] = system: PSEUDOMONAS AERUGINOSA DPHD-2862; experiment: as above; conditions: P. aeruginosa DPHD-2862, unit assumed
# [21] = system: MYCOBACTERIUM SMEGMATIS ATCC 114; experiment: as above; conditions: M. smegmatis ATCC 114, unit assumed
# [22] = system: STAPHYLOCOCCUS AUREUS A5177; experiment: as above; conditions: S. aureus A5177, unit assumed
Structure (SMILES),MIC [1],MIC (ESCHERICHIA COLI KNK 437),MIC [2],MIC [3],MIC (ESCHERICHIA COLI DC-2),MIC [4],MIC [5],MIC [6],MIC [7],MIC (CANDIDA ALBICANS CCH 442),MIC [8],MIC (ESCHERICHIA COLI JUHL),MIC [9],MIC [10],MIC [11],MIC [12],MIC (ESCHERICHIA COLI SS),MIC [13],MIC [14],MIC [15],also measured
CC[C@H]1OC(=O)[C@H](C)C(=O)[C@H](C)[C@@H](O[C@@H]2O[C@H](C)C[C@H](N(C)C)[C@H]2O)[C@](C)(OC)C[C@@H](C)C2=N[C@@H](COCc3ccccc3)CN3C(=O)O[C@@]1(C)[C@H]3[C@H]2C [Example 89],> 100 µg/mL,100 µg/mL,> 100 µg/mL,> 100 µg/mL,100 µg/mL,> 100 µg/mL,0.39 µg/mL,0.01 µg/mL,> 100 µg/mL,> 100 µg/mL,1.56 µg/mL,100 µg/mL,100 µg/mL,0.02 µg/mL,0.2 µg/mL,> 100 µg/mL,0.39 µg/mL,> 100 µg/mL,100 µg/mL,0.39 µg/mL,MIC (ESCHERICHIA COLI H560): 25 µg/mL; MIC [16]: 0.39 µg/mL; MIC (PSEUDOMONAS CEPACIA 296I): 25 µg/mL; MIC [17]: 0.39 µg/mL; MIC (EN[…] ATCC 8043): 0.1 µg/mL; MIC (STR[…] 508): 0.01 µg/mL; MIC (M[…] ATCC 4698): 0.39 µg/mL; MIC (M[…] ATCC 9341): 0.05 µg/mL; MIC [18]: 0.39 µg/mL; MIC [19]: > 100 µg/mL; MIC [20]: > 100 µg/mL; MIC [21]: 0.78 µg/mL; MIC [22]: 0.39 µg/mL
CC[C@H]1OC(=O)[C@H](C)C(=O)[C@H](C)[C@@H](O[C@@H]2O[C@H](C)C[C@H](N(C)C)[C@H]2O)[C@](C)(OC)C[C@@H](C)C2=N[C@H](CN3CCN(C)CC3)CN3C(=O)O[C@@]1(C)[C@H]3[C@H]2C [Example 93],> 100 µg/mL,> 100 µg/mL,> 100 µg/mL,> 100 µg/mL,> 100 µg/mL,> 100 µg/mL,0.78 µg/mL,0.02 µg/mL,> 100 µg/mL,> 100 µg/mL,3.1 µg/mL,> 100 µg/mL,> 100 µg/mL,0.02 µg/mL,3.1 µg/mL,> 100 µg/mL,0.78 µg/mL,> 100 µg/mL,> 100 µg/mL,0.78 µg/mL,MIC (ESCHERICHIA COLI H560): 100 µg/mL; MIC [16]: 0.78 µg/mL; MIC (PSEUDOMONAS CEPACIA 296I): > 100 µg/mL; MIC [17]: 0.78 µg/mL; MIC (EN[…] ATCC 8043): 0.39 µg/mL; MIC (STR[…] 508): 0.1 µg/mL; MIC (M[…] ATCC 4698): 0.78 µg/mL; MIC (M[…] ATCC 9341): 0.1 µg/mL; MIC [18]: 0.78 µg/mL; MIC [19]: > 100 µg/mL; MIC [20]: > 100 µg/mL; MIC [21]: 12.5 µg/mL; MIC [22]: 0.78 µg/mL
CC[C@H]1OC(=O)[C@H](C)C(=O)[C@H](C)[C@@H](O[C@@H]2O[C@H](C)C[C@H](N(C)C)[C@H]2O)[C@](C)(OC)C[C@@H](C)C2=N[C@H](CN3CCOCC3)CN3C(=O)O[C@@]1(C)[C@H]3[C@H]2C [Example 95],> 100 µg/mL,> 100 µg/mL,> 100 µg/mL,> 100 µg/mL,> 100 µg/mL,> 100 µg/mL,0.39 µg/mL,0.02 µg/mL,> 100 µg/mL,> 100 µg/mL,1.56 µg/mL,100 µg/mL,> 100 µg/mL,0.05 µg/mL,0.39 µg/mL,> 100 µg/mL,0.39 µg/mL,> 100 µg/mL,> 100 µg/mL,0.39 µg/mL,MIC (ESCHERICHIA COLI H560): 50 µg/mL; MIC [16]: 0.39 µg/mL; MIC (PSEUDOMONAS CEPACIA 296I): > 100 µg/mL; MIC [17]: 0.39 µg/mL; MIC (EN[…] ATCC 8043): 0.2 µg/mL; MIC (STR[…] 508): 0.1 µg/mL; MIC (M[…] ATCC 4698): 0.39 µg/mL; MIC (M[…] ATCC 9341): 0.1 µg/mL; MIC [18]: 0.39 µg/mL; MIC [19]: > 100 µg/mL; MIC [20]: > 100 µg/mL; MIC [21]: 3.1 µg/mL; MIC [22]: 0.39 µg/mL

# Source: patent US6274715A, “Tricyclic erythromycin derivatives” (priority 1997, dated 2001)
